Results: patent publication US20250346602A1, “LACTAM SUBSTITUTED IMIDAZOPYRIDAZINE IL-17A MODULATORS AND USES THEREOF” (DICE ALPHA, INC., priority 2022, published 2025)

Biological target: T1, IL-17A/A (Homo sapiens, UniProt Q16552)
T1 construct: purchased Genscript Z03228
T1 sequence (Q16552 24-155): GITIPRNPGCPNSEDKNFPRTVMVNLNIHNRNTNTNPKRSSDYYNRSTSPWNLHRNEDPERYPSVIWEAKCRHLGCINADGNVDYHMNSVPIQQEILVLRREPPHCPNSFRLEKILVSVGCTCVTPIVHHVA
Assay: IL-17A/A HEK-Blue cell assay
Assay type: cell-based
Details: HEK-Blue IL-17A reporter cell line (HEK 293), IL-17A/A stimulation, 20 hours incubation, SEAP read at A630
Outline: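 IC50 came from a 4-parameter fit of SEAP read at A630 (Quanti-Blue). Compound was titrated to a top final concentration of 10, 1 or 0.3 uM with 0.1% final DMSO and added just before IL-17A/A. Incubation lasted 20 hours in HEK293 cells engineered with IL-17RA, IL-17RC, Act1 and an NFκB-SEAP reporter.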

IC50	Structure (SMILES)
> 1 µM	CCn1nccc1C(=O)N[C@H](c1cn2nc(CC3C[C@@H](C(F)(F)F)CNC3=O)ccc2n1)C1CC2(CC2)C1 (stereo partly drawn) [Compound 192, 1-ethyl-N—((1S)-(6-(((5R)-2-oxo-5-(trifluoromethyl)piperidin-3-yl)methyl)imidazo[1,2-b]pyridazin-2-yl)(spiro[2.3]hexan-5-yl)methyl)-1H-pyrazole-5-carboxamide]
> 1 µM	CCn1nccc1C(=O)N[C@H](c1cn2nc(CC3C[C@@H](C(F)(F)F)CNC3=O)ccc2n1)C1CCC(F)(F)CC1 (stereo partly drawn) [Compound 193, N-((1S)-(4,4-difluorocyclohexyl)(6-(((5R)-2-oxo-5-(trifluoromethyl)piperidin-3-yl)methyl)imidazo[1,2-b]pyridazin-2-yl)methyl)-1-ethyl-1H-pyrazole-5-carboxamide]
> 1 µM	CCn1nccc1C(=O)N[C@H](c1cn2nc(CC3C[C@@H](C(F)(F)F)CNC3=O)ccc2n1)[C@@H]1CCCC(F)(F)C1 (stereo partly drawn) [Compound 194, N-((1S)—((R)-3,3-difluorocyclohexyl)(6-(((5R)-2-oxo-5-(trifluoromethyl)piperidin-3-yl)methyl)imidazo[1,2-b]pyridazin-2-yl)methyl)-1-ethyl-1H-pyrazole-5-carboxamide]
> 1 µM	CCn1nccc1C(=O)N[C@H](c1cn2ncc(CC3CCNC3=O)cc2n1)C1CCCCCC1 (stereo partly shown) [Compound 203, N-((1 S)-cycloheptyl(7-((2-oxopyrrolidin-3-yl)methyl)imidazo[1,2-b]pyridazin-2-yl)methyl)-1-ethyl-1H-pyrazole-5-carboxamide]
